Patent US6670446B1, “N1 modified glycopeptides” (Eli Lilly and Company, priority 1998, dated 2003)

How the values were obtained:
Format in all cases: cell-based
[1] = system: Staphylococcus aureus 489; assay: MIC, standard broth micro-dilution assay, SA 489
Description: (§1) The antibacterial efficacy of the present compounds is illustrated by Table III. The minimal inhibitory concentrations (MICs) were determined using a standard broth micro-dilution assay.

[2] = system: Staphylococcus aureus SA1199; assay: MIC, standard broth micro-dilution assay, SA 1199
Description: as §1

[3] = system: Staphylococcus aureus 447; assay: MIC, standard broth micro-dilution assay, SA 447
Description: as §1

[4] = system: Enterococcus faecalis 2041; assay: MIC, standard broth micro-dilution assay, EF 2041
Description: as §1

[5] = system: Staphylococcus aureus X400; assay: MIC, standard broth micro-dilution assay, SA X400
Description: as §1

[6] = system: Enterococcus faecium 180-1; assay: MIC, standard broth micro-dilution assay, EF 180-1
Description: as §1

[7] = system: Resistant Enterococcus faecium and faecalis; assay: MIC, standard broth micro-dilution assay, Resistant; settings: geometric mean of 4-6 isolates
Description: as §1

[8] = system: Haemophilus influenzae RD; assay: MIC, standard broth micro-dilution assay, HFRD
Description: as §1

[9] = system: Staphylococcus aureus S13E
Description: as §1

[10] = system: Enterococcus faecalis 276; assay: MIC, standard broth micro-dilution assay, EF 276
Description: as §1

[11] = system: Staphylococcus aureus SA1199A; assay: MIC, standard broth micro-dilution assay, SA 1199A
Description: as §1

[12] = system: Staphylococcus aureus 446; assay: MIC, standard broth micro-dilution assay, SA 446
Description: as §1

[13] = system: Staphylococcus aureus X778; assay: MIC, standard broth micro-dilution assay, SA X778
Description: as §1

[14] = system: Staphylococcus haemolyticus 415; assay: MIC, standard broth micro-dilution assay, SH 415
Description: as §1

[15] = system: Staphylococcus aureus 491; assay: MIC, standard broth micro-dilution assay, SA 491
Description: as §1

[16] = system: Staphylococcus haemolyticus 105; assay: MIC, standard broth micro-dilution assay, SH 105
Description: as §1

Escherichia coli EC14 = assay: MIC, standard broth micro-dilution assay, EC 14
Description: as §1

[17] = system: Enterococcus gallinarum 245; assay: MIC, standard broth micro-dilution assay, EG 245
Description: as §1

Enterococcus faecium 180 = assay: MIC, standard broth micro-dilution assay, EF 180
Description: as §1

[18] = system: Staphylococcus epidermidis 270; assay: MIC, standard broth micro-dilution assay, SE 270
Description: as §1

[19] = system: Sensitive Enterococcus faecium and faecalis; assay: MIC, standard broth micro-dilution assay, Sensitive; settings: geometric mean of 4-6 isolates
Description: as §1

SMILES | minimal inhibitory concentration (MIC), SA 489 [1] | minimal inhibitory concentration (MIC), SA 1199 [2] | minimal inhibitory concentration (MIC), SA 447 [3] | minimal inhibitory concentration (MIC), EF 2041 [4] | minimal inhibitory concentration (MIC), SA X400 [5] | minimal inhibitory concentration (MIC), EF 180-1 [6] | minimal inhibitory concentration (MIC), Resistant [7] | minimal inhibitory concentration (MIC), HFRD [8] | minimal inhibitory concentration (MIC), SA S13E [9] | minimal inhibitory concentration (MIC), EF 276 [10] | minimal inhibitory concentration (MIC), SA 1199A [11] | minimal inhibitory concentration (MIC), SA 446 [12] | minimal inhibitory concentration (MIC), SA X778 [13] | minimal inhibitory concentration (MIC), SH 415 [14] | minimal inhibitory concentration (MIC), SA 491 [15] | minimal inhibitory concentration (MIC), SH 105 [16] | minimal inhibitory concentration (MIC), EC 14 (Escherichia coli EC14) | minimal inhibitory concentration (MIC), EG 245 [17] | minimal inhibitory concentration (MIC), EF 180 (Enterococcus faecium 180) | minimal inhibitory concentration (MIC), SE 270 [18] | further results
CC1OC(OC2c3ccc(c(Cl)c3)Oc3cc4cc(c3OC3OC(CO)C(O)C(O)C3OC3CC(C)(NCc5ccc(-c6ccccc6)cc5)C(O)C(C)O3)Oc3ccc(cc3Cl)C(O)C(NC(=O)C(N)Cc3ccc(Cl)cc3)C(=O)NC(CC(N)=O)C(=O)NC4C(=O)NC3C(=O)NC2C(=O)NC(C(=O)O)c2cc(O)cc(O)c2-c2cc3ccc2O)CC(C)(N)C1O [Example 22, N^1-[D-3-(p-chlorophenyl)alanine] derivative of N^DISACC-(p-phenylbenzyl)desleucylA82846B] | 1 | 2 | 1 | 1 | 0.5 | ≦.06 | 6.7 | >64 | 2 | 1 | 0.25 | 1 | 1 | 4 | 0.5 | 2 | >64 | 0.25 | 2 | 0.25 | minimal inhibitory concentration (MIC), Sensitive [19]: 0.66
CC1OC(OC2c3ccc(c(Cl)c3)Oc3cc4cc(c3OC3OC(CO)C(O)C(O)C3OC3CC(C)(NCc5ccc(-c6ccccc6)cc5)C(O)C(C)O3)Oc3ccc(cc3Cl)C(O)C(NC(=O)C(N)CCCCN)C(=O)NC(CC(N)=O)C(=O)NC4C(=O)NC3C(=O)NC2C(=O)NC(C(=O)O)c2cc(O)cc(O)c2-c2cc3ccc2O)CC(C)(N)C1O [Example 23, N^1-D-lysine derivative of N^DISACC-(p-phenylbenzyl)desleucylA82846B] | 0.5 | 0.5 | 1 | 0.5 | 2 | ≦.06 | 2 | >64 | 2 | 0.25 | 0.25 | 1 | 2 | 1 | 0.5 | 1 | >64 | 0.125 | 0.5 | 0.125 | minimal inhibitory concentration (MIC), Sensitive [19]: 0.29
CC1OC(OC2C(Oc3c4cc5cc3Oc3ccc(cc3Cl)[C@@H](O)[C@@H](NC(=O)[C@H]3CCCN3C(=O)OC(C)(C)C)C(=O)N[C@@H](CC(N)=O)C(=O)N[C@H]5C(=O)N[C@H]3C(=O)NC(C(=O)N[C@H](C(=O)O)c5cc(O)cc(O)c5-c5cc3ccc5O)[C@H](OC3CC(C)(N)C(O)C(C)O3)c3ccc(c(Cl)c3)O4)OC(CO)C(O)C2O)CC(C)(N)C1O (stereo partly drawn) [Example 24, N^1-(N-BOC-D-proline) derivative of desleucylA82846B] | 2 | 2 | 4 | 1 | 2 | 1 | >128 | >64 | 2 | 1 | 1 | 4 | 1 | 32 | 1 | 16 | >64 | 8 | >64 | 2 | minimal inhibitory concentration (MIC), Sensitive [19]: 4
